What was measured:
[1] = system: UWB1.289 + BRCA1 human ovarian cancer cell line; test: MTT cytostatic-cytotoxic activity, UWB1.289+BRCA1; format: cell-based; conditions: for GI50 / IC50: Homo sapiens, UWB1289, UWB1.289+BRCA1, 48 h treatment; for IC50: kills 50% of the cells; for TGI: UWB1.289+BRCA1, 48 h treatment
Experimental: Human ovarian adenocarcinoma cells, derived from UBWB1,289, in which the presence of the BRCA1 gene has been restored. […] They are not susceptible to ionizing radiation and radioimmune chemical agents (e.g., alkylating agents). Also, UWB1.289 cells have mutated the p53 tumor suppressor gene, and are positive for the expression of cytokeratin 7 (CK-7), calretinin and Wilms' tumor protein (WT).
(§1) All cancer cell lines are stored in a liquid nitrogen tank in 2.5 ml cryovials (Corning-Costar, Cambridge, Mass.). DMSO (dimethylsulfoxide) act as a cryoprotectant and is added to prevent the formation of ice crystals which may lyse the cells. The Cells were grown as monolayer cultures in T-75 flasks (Corning-Costar, Cambridge, Mass.) and maintained at 37° C. in 5% CO2 incubator & 100% relative humidity. The cultures medium used are McCoy's 5a Medium, supplemented with 10% fetal bovine serum (FBS, Gibco) and 1% antibiotics (100 IU/ml penicillin/100 µg/ml streptomycin), sterilized by filtration (Corning-Costar filter, diameter 0.2 μm, RPMI-1640 and 50% RPMI-1640 (Catalog No 30-2001) plus 50% Mammary Epithelial Growth Medium (MEGM), supplemented with 10% fetal bovine serum (FBS, Gibco) and 1% antibiotics (100 IU/ml penicillin/100 μg/ml streptomycin). The passage is performed every 3-4 to days as follows: Cells are washed with sterile PBS (Phosphate buffered saline): 8 g/l NaCl, 0,2 g/l KCl, 1,15 g/l Na2HPO4καl 0,2 g/l KH2PO4. pH:7,4), add 2-3 ml 0.05% trypsin (Gibco 1:250) and 0.02% EDTA to cover the monolayer and incubate the flask at 3TC for 5-10 minutes. Trypsin-EDTA, is used mainly to detach the cells from the flask and prepare a single cell suspension. Finally, the number of cells can be determined by direct counting using a Neubauer chamber and cell viability is determined by staining the cells with trypan blue.
(§2) In the experimental study the in vitro effect of the compound type (I) was evaluated against ovarian cancer cell lines UWB1.289, UWB1.289+BRCA1 Kai SKOV-3.The cells were plated in 96-well plate (MTP) at a density of 1×10^4cells/m1 per well and maintained for 72 h at 3TC in a 5% CO2 incubator and grown as monolayers. The selection of the initial number of cells was made according to the rate of proliferation of the cell line, in order the cells throughout the experiment are in an exponential (log) growth phase. After 24 hours, cells were treated with 1-100 μmol/l of the tested compounds for 48 h. Experiments were carried out using triplicate wells. The viability of cultured cells was estimated by an (3-(4,5-imethylthiazol-2-yl)-2,5-diphenyltetrazolium bromide (MTT) metabolic assay as described previously (Finlay G J, Wilson W R and Baguley B C: Comparison of in vitro activity of cytotoxic drugs towards human carcinoma and leukaemia cell lines. Eur J Cancer Clin Oncol 22: 655-662, 1986; Alley M C, Scudiero D A, Monks A, Hursey M L, Czerwinski M J, Fine D L, et al. Feasibility of drug screening with panels of human tumor cell lines using a microculture tetrazolium assay. Cancer Res 1988; 48:589-601). MTT (Sigma, St Louis, Mo., USA) was dissolved in PBS in a concentration of 5 mg/ml, filter sterilized, and stored at 4° C. MTT (50 μl of stock solution) was added to each culture and incubated for 3 h at 3TC to allow metabolization. Formazan crystals were solubilized by DMSO (100 μl). Absorbance of the converted dye was measured at a wavelength of 540nm on ELISA reader (BioTek, Winooski, Vt., USA).
(§3) GI50: The mean concentration that causes 50% inhibition of cell growth (Growth Inhibition 50%). The calculation of the value is based on the formula: (Tt72x)−(Ct24)/(Ct72)-(Ct24)×100=50
(§4) TGI: The mean concentration that causes 100% inhibition of cell growth (Total Growth Inhibition). The value is calculated according to the formula: (Tt72x)−(Ct24)/(Ct72)−(Ct24)×100=0
(§5) IC50: The mean concentration that kills 50% of the cells (Inhibition Concentration 50%). The value is calculated according to the formula: (Tt72x)−(Ct24)/(Ct24)×100=[…]

[2] = system: MCF-7 human breast cancer cell line; test: MTT cytostatic-cytotoxic activity, MCF-7; format: cell-based; conditions: for GI50 / IC50: Homo sapiens; for GI50: MCF7, 48 h; for GI50 / TGI: MCF-7, 48 h treatment; for IC50: MCF7, MCF-7, 48 h treatment, kills 50% of the cells
[3] = system: PC-3 human hormone-resistant prostate cancer cell line; test: MTT cytostatic-cytotoxic activity, PC-3; format: cell-based; conditions: PC-3, 48 h treatment; for GI50 / IC50: Homo sapiens; for IC50: kills 50% of the cells
[4] = system: UWB1.289 human ovarian cancer cell line (mutant BRCA1); test: MTT cytostatic-cytotoxic activity, UWB1.289; format: cell-based; conditions: for GI50 / IC50: Homo sapiens; for GI50: UWB1289, 48 h; for GI50 / TGI: UWB1.289, 48 h treatment; for IC50: UWB1289, UWB1.289, 48 h treatment, kills 50% of the cells
Experimental: Also, UWB1.289 cells have mutated the p53 tumor suppressor gene and positive Wilms' tumor protein (WT) expression, have no functional BRCA1 gene and are positive for the expression of cytokeratin 7 (CK-7), calretinin and Wilms' tumor protein (WT). Finally they are sensitive to ionizing radiation.
as §1, §2, §3, §4, §5

in vivo = conditions: both sexes, mouse, in vivo, ip; C57BI/6 mice, acute toxicity
Experimental: (§6) The acute toxicity of the compounds was assessed from lethality by testing different concentrations, starting at 100mg/kg. […] For intraperitoneal (i.p.) treatment, stock solutions of the tested compounds were prepared immediately before use. They were suspended in corn oil in the desired concentration following initial dissolution in 10% dimethylsulfoxide (DMSO). C57BI/6 male and female were used for toxicity studies. Mice were kept under conditions of constant temperature and humidity in sterile cages with water and food.

C57BI/6 mice = test: in vivo; conditions: i.p., acute toxicity
Experimental: as §6

[5] = system: A-549 human lung carcinoma cell line; test: MTT cytostatic-cytotoxic activity, A-549; format: cell-based; conditions: for TGI: A-549, 48 h treatment; for GI50 / IC50: Homo sapiens, A549, A-549, 48 h treatment; for IC50: kills 50% of the cells

| SMILES | GI50 [1] [µM] | IC50 [1] [µM] | TGI [1] [µM] | GI50 [2] [µM] | IC50 [2] [µM] | TGI [2] [µM] | GI50 [3] [µM] | IC50 [3] [µM] | TGI [3] [µM] | GI50 [4] [µM] | IC50 [4] [µM] | TGI [4] [µM] | LD50 (in vivo) [mg/kg] | LD10 (C57BI/6 mice) [mg/kg] | LD50 (C57BI/6 mice) [mg/kg] | TGI [5] [µM] | GI50 [5] [µM] | IC50 [5] [µM] |
| --- | --- | --- | --- | --- | --- | --- | --- | --- | --- | --- | --- | --- | --- | --- | --- | --- | --- | --- |
| COc1cc(Cc2nnc3sc(-c4ccc(N)cc4)nn23)c(S(=O)(=O)N(C)C)cc1OC [TS71, 3-[2-(N,N-dimethylsulfamoyl)-4,5-dimethoxybenzyl]-6-(4-aminophenyl)-1,2,4-triazolo[3,4-b]-1,3,4-thiazole] | 90 | > 100 | >100 | > 100 | > 100 | >100 | > 100 | > 100 | >100 | > 100 | > 100 | >100 | > 500 | >500 | >500 | >100 | > 100 | > 100 |
| COc1cc(Cc2nnc3sc(-c4ccccc4N)nn23)c(S(=O)(=O)N(C)C)cc1OC [TS57, 3-[2-(N,N-dimethylosulfamoyl)-4,5-dimethoxybenzyl]-6-(2-aminophenyl)-1,2,4-triazolo[3,4-b]-1,3,4-thiazole] | 85 | > 100 | >100 | > 100 | > 100 | >100 | > 100 | > 100 | >100 | > 100 | > 100 | >100 | > 500 | >500 | >500 | >100 | > 100 | > 100 |
| COc1cc(Cc2nnc3sc(-c4ccccc4)nn23)c(S(=O)(=O)N(C)C)cc1OC [TS167, 3-[2-(N,N-dimethylsulfamoyI)-4,5-dimethoxy-benzyl]-6-phenyl-1,2,4-triazolo[3,4-b]-1,3,4-thiazole] | 76 | > 100 | >100 | 65 | > 100 | >100 | 62 | > 100 | >100 | 56 | > 100 | >100 | > 500 | >500 | >500 | >100 | 74 | > 100 |
| COc1cc(Cc2nnc3sc(/C=C/c4ccc(Cl)cc4)nn23)c(S(=O)(=O)N(C)C)cc1OC [TS26, 3-[2-(N,N-dimethylsulfamoyl)-4,5-dimethoxybenzyl]-6-(E)-4-chlorostyryl-1,2,4-triazolo[3,4-b]-1,3,4-thiazole] | 11 | 54 | 37 | 25 | > 100 | 67 | 19 | 86 | 47 | 8 | 72 | 21 | 365 | >500 |  | 90 | 20 | > 100 |
| COc1ccc(Cc2nn3c(Cc4cc(OC)c(OC)cc4S(=O)(=O)N(C)C)nnc3s2)cc1 [TS50, 3-[2-(N,N-dimethylsulfamoyl)-4,5-dimethoxybenzyl]-6-(4-methoxybenzyl)-1,2,4-triazolo[3,4-b]-1,3,4-thiazole] | 16 | > 100 | >100 | 40 | > 100 | >100 | 44 | > 100 | >100 | 30 | > 100 | >100 | > 500 | >500 | >500 | >100 | 35 | > 100 |
| COc1cc(Cc2nnc3sc(Cc4ccccc4)nn23)c(S(=O)(=O)N(C)C)cc1OC [TS62, 3-[2-(N,N-dimethylsulfamoyl)-4,5-dimethoxybenzyl]-6-benzyl-1,2,4-triazolo[3,4-b]-1,3,4-thiazole] | 8 | > 100 | 64 | 18 | > 100 | >100 | 27 | > 100 | >100 | 13 | > 100 | >100 | 480 | >500 |  | 71 | 15 | > 100 |
| COc1cc(Cc2nnc3sc(/C=C/c4ccc(F)cc4)nn23)c(S(=O)(=O)N(C)C)cc1OC [TS25, 3-[2-(N,N-dimethylsulfamoyl)-4,5-dimethoxybenzyl]-6-(E)-4-fluorostyryl-1,2,4-triazolo[3,4-b]-1,3,4-thiazole] | 5 | 36 | 12 | 16 | 86 | 51 | 8 | 69 | 24 | 2 | 60 | 4 | 345 | >500 |  | 56 | 11 | 87 |
| COc1cc(Cc2nnc3sc(-c4ccc(Cl)cc4)nn23)c(S(=O)(=O)N(C)C)cc1OC [TS63, 3-[2-(N,N-dimethylsulfamoyl)-4,5-dimethoxybenzyl]-6-(4-chlorophenyl)-1,2,4-triazolo[3,4-b]-1,3,4-thiazole] | 8 | > 100 | 64 | 22 | > 100 | 50 | 20 | > 100 | 45 | 30 | > 100 | 50 | 430 | >500 |  | 36 | 14 | 92 |
